Measured values published in ChEMBL document CHEMBL5625240, “Synthesis and evaluation of 2-NMPA derivatives as potential agents for prevention of osteoporosis in vitro and in vivo” (Eur J Med Chem, 2023).
Values joined by “and” are separate entries in the source; they are usually repeats but may differ in a detail not shown here. Equal values may be shown once. Active and inactive are the calls of the source. No cut-off for these calls is given here.

Key:
[1] = test system: BMDM; test: Anti-osteoporosis activity in mouse BMDM cells assessed as inhibition of RANKL-induced osteoclastogenesis at 1 uM measured for 30 mins in presence of MCSF by TRAP staining based assay; type: functional; conditions: 0.5 h
[2] = test system: BMDM; test: Inhibition of AKT phosphorylation in RANKL/M-CSF-induced mouse BMDM cells by Western blot analysis; type: cell-based; conditions: dose 1.0 µM
[3] = test system: Mus musculus; test: Anti-osteoporosis activity in OVX-induced osteoporosis C57BL/6 mouse model assessed as prevention of bone loss in femur at 10 mg/kg, ip daily for 4 weeks by micro computed tomographic analysis; type: functional, organism-based
[4] = test system: BMDM; test: Inhibition of RANKL/M-CSF-induced osteoclastogenesis in mouse BMDM cells assessed as decrease in CTSK mRNA level at 1 uM incubated for 4 days by qRT-PCR analysis; type: functional, cell-based; conditions: time 4.0 day
[5] = test system: BMDM; test: Inhibition of RANKL/M-CSF-induced osteoclastogenesis in mouse BMDM cells assessed as reduction in F-actin belt size formation at 1 uM incubated for 6 days by immunofluorescence assay; type: functional, cell-based; conditions: time 6.0 day
[6] = test system: BMDM; test: Anti-osteoclastogenesis activity in mouse BMDM cells assessed as inhibition of RANKL/M-CSF-induced osteoclasts differentiation at below 2 uM measured for 9 days by […] staining based assay; type: functional, cell-based; conditions: time 9.0 day
[7] = test system: Mus musculus; test: Anti-osteoporosis activity in OVX-induced osteoporosis C57BL/6 mouse model assessed as recovery of trabecular separation in femur at 10 mg/kg, ip daily for 4 weeks by micro computed tomographic analysis; type: functional, organism-based
[8] = test system: BMDM; test: Inhibition of RANKL/M-CSF-induced osteoclastogenesis in mouse BMDM cells assessed as reduction in F-actin belt size formation at 500 to 2000 nM incubated for 6 days by immunofluorescence assay; type: functional, cell-based; conditions: dose 500-2000 nM, time 6.0 day
[9] = test system: BMDM; test: Downregulation of c-fos expression in RANKL-induced mouse BMDM cells at 1 uM incubated for 4 days by Western blot analysis; type: functional, cell-based; conditions: time 4.0 day
[10] = test system: BMDM; test: Inhibition of RANKL/M-CSF-induced osteoclastogenesis in mouse BMDM cells assessed as decrease in Mmp9 mRNA level at 1 uM incubated for 4 days by qRT-PCR analysis; type: functional, cell-based; conditions: time 4.0 day
[11] = test system: Mus musculus; test: Anti-osteoporosis activity in OVX-induced osteoporosis C57BL/6 mouse model assessed as recovery of trabecular volume in femur at 10 mg/kg, ip daily for 4 weeks by micro computed tomographic analysis; type: functional, organism-based
[12] = test system: BMDM; test: Inhibition of NF-kappaB phosphorylation in RANKL/M-CSF-induced mouse BMDM cells by Western blot analysis; type: cell-based; conditions: dose 1.0 µM
[13] = test system: Mus musculus; test: Anti-osteoporosis activity in OVX-induced osteoporosis C57BL/6 mouse model assessed as recovery of trabecular number in femur at 10 mg/kg, ip daily for 4 weeks by micro computed tomographic analysis; type: functional, organism-based
[14] = test system: BMDM; test: Anti-osteoclastogenesis activity in RANKL/M-CSF-induced mouse BMDM cells assessed as inhibition of TRAF6 protein expression at 1 uM measured for 4 days; type: functional, cell-based; conditions: time 4.0 day
[15] = test system: BMDM; test: Inhibition of PI3K phosphorylation in RANKL/M-CSF-induced mouse BMDM cells by Western blot analysis; type: cell-based; conditions: dose 1.0 µM
[16] = test system: Mus musculus; test: Anti-osteoporosis activity in OVX-induced osteoporosis C57BL/6 mouse model assessed as recovery of bone surface density in femur at 10 mg/kg, ip daily for 4 weeks by micro computed tomographic analysis; type: functional, organism-based
[17] = test system: Mus musculus; test: Anti-osteoporosis activity in OVX-induced osteoporosis C57BL/6 mouse model assessed as reduction in […] level in serum at 10 mg/kg, ip daily for 4 weeks; type: functional, organism-based
[18] = test system: BMDM; test: Downregulation of NFATc1 expression in mouse RANKL-induced BMDM cells at 1 uM incubated for 4 days by Western blot analysis; type: functional, cell-based; conditions: time 4.0 day
[19] = test system: BMDM; test: Inhibition of RANKL/M-CSF-induced osteoclastogenesis in mouse BMDM cells assessed as reduction in F-actin belt size formation at 1000 nM incubated for 6 days by immunofluorescence assay; type: functional, cell-based; conditions: time 6.0 day
[20] = test system: BMDM; test: Inhibition of RANKL/M-CSF-induced osteoclastogenesis in mouse BMDM cells assessed as decrease in Nfatc1 mRNA level at 1 uM incubated for 4 days by qRT-PCR analysis; type: functional, cell-based; conditions: time 4.0 day
[21] = test system: BMDM; test: Downregulation of c-src expression in RANKL-induced mouse BMDM cells at 1 uM incubated for 4 days by Western blot analysis; type: functional, cell-based; conditions: time 4.0 day
[22] = test system: BMDM; test: Inhibition of RANKL/M-CSF-induced osteoclastogenesis in mouse BMDM cells assessed as decrease in Acp5 mRNA level at 1 uM incubated for 4 days by qRT-PCR analysis; type: functional, cell-based; conditions: time 4.0 day
[23] = test system: BMDM; test: Downregulation of CTSK expression in RANKL-induced mouse BMDM cells at 1 uM incubated for 4 days by Western blot analysis; type: functional, cell-based; conditions: time 4.0 day
[24] = target: T1, NF-kappa-B inhibitor alpha (Mus musculus) (UniProt Q9Z1E3); test: Inhibition of IkappaBalpha phosphorylation in RANKL/M-CSF-induced mouse BMDM cells by Western blot analysis; type: cell-based; conditions: dose 1.0 µM
T1 sequence (whole entry): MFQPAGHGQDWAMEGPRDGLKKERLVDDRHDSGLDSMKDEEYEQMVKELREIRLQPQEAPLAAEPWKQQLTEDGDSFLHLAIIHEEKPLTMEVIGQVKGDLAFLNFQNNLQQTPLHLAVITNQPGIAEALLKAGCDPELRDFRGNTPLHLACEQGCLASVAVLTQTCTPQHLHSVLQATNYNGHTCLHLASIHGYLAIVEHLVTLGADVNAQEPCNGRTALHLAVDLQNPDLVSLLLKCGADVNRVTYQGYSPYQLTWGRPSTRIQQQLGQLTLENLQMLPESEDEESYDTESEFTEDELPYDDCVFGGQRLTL

[25] = test system: BMDM; test: Inhibition of RANKL/M-CSF-induced osteoclastogenesis in mouse BMDM cells assessed as decrease in bone resorption pit number at 500 to 2000 nM incubated for 6 days by microscopic analysis; type: functional, cell-based; conditions: dose 500-2000 nM, time 6.0 day
[26] = test system: BMDM; test: Inhibition of RANKL/M-CSF-induced osteoclastogenesis in mouse BMDM cells assessed as decrease in Atp6v0d2 mRNA level at 1 uM incubated for 4 days by qRT-PCR analysis; type: functional, cell-based; conditions: time 4.0 day
[27] = test system: BMDM; test: Anti-osteoporosis activity in mouse BMDM cells assessed as inhibition of RANKL/M-CSF-induced osteoclasts formation measured for 4 days by TRAP staining based assay; type: functional, cell-based
[28] = test system: BMDM; test: Anti-osteoclastogenesis activity in mouse BMDM cells assessed as inhibition of RANKL/M-CSF-induced osteoclasts differentiation at 2 uM measured for 9 days by […] staining based assay; type: functional; conditions: 216 h, time 9 day
[29] = test system: BMDM; test: Inhibition of RANKL/M-CSF-induced osteoclastogenesis in mouse BMDM cells assessed as decrease in Dc-stamp mRNA level at 1 uM incubated for 4 days by qRT-PCR analysis; type: functional, cell-based; conditions: time 4.0 day
[30] = test system: BMDM; test: Inhibition of RANKL/M-CSF-induced osteoclastogenesis in mouse BMDM cells assessed as decrease in bone resorption pit size at 500 to 2000 nM incubated for 6 days by microscopic analysis; type: functional, cell-based; conditions: dose 500-2000 nM, time 6.0 day
[31] = test system: BMDM; test: Cytotoxicity against mouse BMDM cells assessed as reduction in cell viability at < 4 uM incubated for 48 hrs; type: toxicity, cell-based
[32] = test system: BMDM; test: Downregulation of TRAF6 expression in RANKL-induced mouse BMDM cells at 1 uM incubated for 4 days by Western blot analysis; type: functional, cell-based; conditions: time 4.0 day
[33] = test system: BMDM; test: Anti-osteoporosis activity in mouse BMDM cells assessed as inhibition of RANKL-induced osteoclastogenesis at 2 uM measured for 30 mins in presence of MCSF by TRAP staining based assay; type: functional; conditions: for inhibition at 2 µM: Mus musculus, BMDM
[34] = test system: BMDM; test: Anti-osteoporosis activity in mouse BMDM cells assessed as inhibition of […]-induced osteoclastogenesis at 2 uM measured for 30 mins in presence of MCSF by TRAP staining based assay; type: functional; conditions: 0.5 h
[35] = test system: BMDM; test: Inhibition of RANKL/M-CSF-induced osteoclastogenesis in mouse BMDM cells assessed as decrease in bone resorption pit size at 1000 nM incubated for 6 days by microscopic analysis; type: functional, cell-based; conditions: time 6.0 day

`O=C(COc1ccccc1Cl)Nc1ccc(OS(=O)(=O)C(F)(F)F)cc1N1CCOCC1` gave an inhibition at 1 µM [1] of 50.5%.

With `CC(=O)Nc1ccc(S(=O)(=O)Oc2ccc(NC(=O)COc3ccccc3Cl)c(N3CCOCC3)c2)cc1` the inhibition [2] was “Active”, the Activity [3] was “Active” and the inhibition [4] was “Active”. The inhibition [5] was “Active”, the inhibition [6] was “inactive” and the Activity [7] was “Active”. For the same compound, the inhibition [8] was “Active”, the Activity [9] was “Active” and the inhibition [10] was “Active”. The Activity [11] was “Active”, the inhibition [12] was “Active” and the Activity [13] was “Active”. The Activity [14] was “Active”, the inhibition [15] was “Active” and the Activity [16] was “Active”. For the same compound, the Activity [17] was “Active”, the Activity [18] was “Active” and the inhibition [19] was “Active”. The inhibition [20] was “Active”, the Activity [21] was “Active” and the inhibition [22] was “Active”. For the same compound, the Activity [23] was “Active”, the inhibition [24] was “Active” and the inhibition [25] was “Active”. For the same compound, the inhibition [26] was “Active”, the IC50 ([27]; 96 h) was 358 nM and the inhibition ([27]; dose <= 4000.0 nM, time 4.0 day) was “Dose-Dependent Effect”. The inhibition at 1 µM [1] was 61.5%, the inhibition at 2 µM [28] was 100% and the inhibition [29] was “Active”. The inhibition [30] was “Active”, the Activity [31] was “Non-Toxic” and the Activity [32] was “Active”.

With `O=C(CS(=O)(=O)c1ccccc1)Nc1cccc(Cl)c1N1CCOCC1` the inhibition at 2 µM ([33]; 0.5 h) was 62.1%.

`Cc1ccc(OCC(=O)Nc2cccc(Cl)c2N2CCOCC2)c(C(C)C)c1` showed an inhibition at 2 µM [34] of 82.9% and an inhibition at 2 µM ([33]; 0.5 h) of 86.4%.

For `CC(Oc1ccc(Cl)cc1Cl)C(=O)Nc1cccc(Cl)c1N1CCOCC1` (configuration not stated), the inhibition at 2 µM ([33]; 0.5 h) was 43.4%.

`CCCN(CCC)S(=O)(=O)c1ccc(C(=O)Oc2ccc(NC(=O)COc3ccccc3Cl)c(N3CCOCC3)c2)cc1` was tested, and the inhibition at 1 µM [1] was 21.6%.

`CC(C)(C)[Si](C)(C)Oc1ccc(NC(=O)COc2ccccc2Cl)c(N2CCOCC2)c1` was tested, and the inhibition at 1 µM [1] was 34.8%.

In the case of `NCCCC(O)(P(=O)(O)O)P(=O)(O)O` [ALENDRONIC ACID], the inhibition at 2 µM ([33]; 0.5 h) is reported as 67.9%.

For `Cc1cccc(OCC(=O)Nc2ccccc2N2CCOCC2)c1C`, the inhibition at 2 µM ([33]; 0.5 h) was 13.6%.

With `COC(=O)c1ccc(N2CCOCC2)c(NC(=O)COc2cccc(C)c2)c1` the inhibition at 2 µM [34] was 2.77%, the inhibition at 1 µM [1] was 52.5% and the “inhibition (INH)” value ([33]; 0.5 h, 2 µM) was 94.58% and 52.52%.

`Cc1cc(OCC(=O)Nc2ccccc2N2CCOCC2)cc(C)c1Cl` was tested, and the inhibition [33] was “inactive”.

For `CCC(=O)N1CCN(c2ccccc2NC(=O)COc2ccccc2Cl)CC1`, the Activity [17] was “Active”, the inhibition at 1 µM [1] was 42% and the inhibition [35] was “Active”.

Compound `O=C(COc1ccccc1Cl)Nc1ccc(OC(=O)c2ccco2)cc1N1CCOCC1` has an inhibition at 1 µM [1] of 31.4%.

`CC(C)(C)OC(=O)N[C@@H](Cc1cn(C(=O)OC(C)(C)C)cn1)C(=O)Oc1ccc(NC(=O)COc2ccccc2Cl)c(N2CCOCC2)c1` was tested, and the inhibition at 1 µM [1] was 34.6%.

`O=C(COc1ccccc1Cl)Nc1ccc(OC(=O)c2cccs2)cc1N1CCOCC1` gave an inhibition at 1 µM [1] of 39.3%.

`CCC(=O)Oc1ccc(NC(=O)COc2ccccc2Cl)c(N2CCOCC2)c1` gave an inhibition at 1 µM [1] of 32.8%.

Compound `O=C(COc1ccccc1Cl)Nc1ccccc1N1CCOCC1` has an inhibition at 1 µM [1] of 21%.

Compound `CC(=O)Nc1ccc(S(=O)(=O)Oc2ccc(N)c(N3CCOCC3)c2)cc1` has an inhibition at 1 µM [1] of 11.3%.

In the case of `Cc1cc(=O)oc2cc(OCC(=O)Nc3cc(C(F)(F)F)ccc3N3CCOCC3)ccc12`, the inhibition at 2 µM [34] is reported as 29.4% and the inhibition at 2 µM ([33]; 0.5 h) is reported as 95.3%.

`O=C(CSc1cccc2ccccc12)Nc1ccccc1N1CCOCC1` was tested, and the inhibition at 2 µM ([33]; 0.5 h) was 61.3%.

In the case of `CS(=O)(=O)N(CC(=O)Nc1ccccc1Sc1ccccc1)c1cccc(C(=O)Oc2ccc(NC(=O)COc3ccccc3Cl)c(N3CCOCC3)c2)c1`, the inhibition at 1 µM [1] is reported as 50.9%.

`O=C(COc1ccccc1Cl)Nc1ccc(OC(=O)c2ccccc2F)cc1N1CCOCC1` gave an inhibition at 1 µM [1] of 34.2%.

With `Cc1ccc(S(=O)(=O)CC(=O)Nc2cc(Cl)ccc2N2CCOCC2)cc1` the inhibition at 2 µM ([33]; 0.5 h) was 30.9%.

Compound `O=C(COc1ccccc1Cl)Nc1ccc(O)cc1N1CCOCC1` has an inhibition at 1 µM [1] of 27.1%.
